Tests used:
[1] = Bioavailability of the salt compared with free base and other salts; type: in vivo; details: compared to the free base form of the Agent and other salts
[2] = Dissolution rate of the salt compared with free base and other salts; type: physicochemical; details: compared to the free base form of the Agent and other salts
[3] = Biopharmaceutical Classification System (BCS) classification; type: physicochemical; details: indicates low solubility/dissolution rate and low permeability
[4] = Bioavailability of the free base form from a conventional tablet formulation; details: dog, in vivo, oral, in dogs

bioavailability [1]	dissolution rate [2]	BCS classification [3]	bioavailability [4] [%]	SMILES
particularly high	particularly high	–	–	Cn1cnc2c(F)c(Nc3ccc(Br)cc3Cl)c(C(=O)NOCCO)cc21 [Agent, 6-(4-bromo-2-chloro-phenylamino)-7-fluoro-3-methyl-3H-benzoimidazole-5-carboxylic acid (2-hydroxy-ethoxy)-amide]
–	–	BCS Class 4	~18	Cn1cnc2c(F)c(Nc3ccc(Br)cc3Cl)c(C(=O)NOCCO)cc21 [free-base form of the Agent, 6-(4-bromo-2-chloro-phenylamino)-7-fluoro-3-methyl-3H-benzoimidazole-5-carboxylic acid (2-hydroxy-ethoxy)-amide]

From US12318367B2, “Pharmaceutical composition” (ASTRAZENECA AB, priority 2008, dated 2025)
